# Results as given in ChEMBL document CHEMBL4814008, “Using porphyrins as albumin-binding molecules to enhance antitumor efficacies and reduce systemic toxicities of antimicrobial peptides” (Eur J Med Chem, 2021).
# The source made the active and inactive calls. The rule behind the calls is not given here.
# Tests used:
# CWR22R = assay: Cytotoxicity against human 22RV1 cells; type: functional, cell-based
# [1] = Toxicity in ICR mouse assessed as effect on lungs morphology at 100 uM, iv measured after 24 hrs by H and E staining based light microscopic analysis; type: organism-based; conditions: in vivo
# [2] = Toxicity in ICR mouse assessed as effect on heart morphology at 100 uM, iv measured after 24 hrs by H and E staining based light microscopic analysis; type: organism-based; conditions: in vivo
# [3] = Toxicity in ICR mouse assessed as effect on spleen morphology at 100 uM, iv measured after 24 hrs by H and E staining based light microscopic analysis; type: organism-based; conditions: in vivo
# 4T1 [4] = assay: (§1) Anti-metastatic activity against mouse 4T1 cells xenografted in BALB/c mouse assessed as metastasized area in lungs at 2.4 mg/kg, iv dosed every 3 days for 23 days and measured on day 30 by hematoxylin and eosin staining based analysis (reference value: 44.8%); type: functional; conditions: time 30 day
# 4T1 [5] = assay: Antitumor activity against mouse 4T1 cells xenografted in BALB/c mouse assessed as inhibition of tumor growth at 2.4 mg/kg, iv dosed every 3 days for 23 days; type: functional, organism-based; conditions: time 23.0 day
# 4T1 [6] = assay: Antitumor activity against mouse 4T1 cells xenografted in BALB/c mouse assessed as reduction in tumor weight at 2.4 mg/kg, iv dosed every 3 days for 23 days and measured on day 23; type: functional; conditions: 4T1, iv, 552 h, time 23 day
# [7] = Toxicity in ICR mouse assessed as effect on kidney morphology at 100 uM, iv measured after 24 hrs by H and E staining based light microscopic analysis; type: organism-based; conditions: in vivo
# [8] = Hepatotoxicity in ICR mouse assessed as hepatocytes with extensive shrinking cytoplasm, destroyed intercellular connections, necrotic cells with smeared nuclei at 100 uM, iv measured after 24 hrs by H and E staining based light microscopic analysis; type: toxicity, organism-based
# Erythrocyte [9] = assay: Induction of hemolysis in RBC (unknown origin) in absence of serum; type: cell-based
# Erythrocyte [10] = assay: Induction of hemolysis in RBC (unknown origin) in presence of 10% FBS; type: cell-based
# [11] = Drug uptake in human MDA-MB-231 cells by flow cytometric analysis; type: ADME, cell-based
# [12] = Drug uptake in human L02 cells by flow cytometric analysis; type: ADME, cell-based
# Albumin = Albumin (Homo sapiens, UniProt P02768); assay: Binding affinity to human serum albumin assessed as dissociation constant by fluorescence emission spectrophotometric analysis; type: ADME, cell-free
# 4T1 [13] = assay: Phototoxicity against mouse 4T1 cells in presence of illumination by MTT assay; type: functional, cell-based; conditions: 4T1, light or radiation study
# 4T1 [14] = assay: Phototoxicity against mouse 4T1 cells in presence of illumination by MTT assay relative to control; type: functional
# [15] = Time-dependent drug uptake in mouse 4T1 cells measured for 24 hrs by flow cytometric analysis; type: ADME, cell-based; conditions: 4t1, 24 h, TDE = time-dependent effect
# 4T1 [16] = assay: Cytotoxicity against mouse 4T1 cells by MTT assay; type: functional, cell-based
# MDA-MB-231 [17] = assay: Cytotoxicity against human MDA-MB-231 cells assessed as reduction in cell viability at 0.5 uM by calcein-AM/PI staining based fluorescence analysis; type: functional
# MDA-MB-231 [18] = assay: Phototoxicity against human MDA-MB-231 cells assessed as reduction in cell viability at 0.5 uM in presence of illumination by calcein-AM/PI staining based fluorescence analysis; type: functional
# MDA-MB-231 [19] = assay: Induction of apoptosis in human MDA-MB-231 cells assessed as early apoptotic cells at […] by flow cytometric analysis; type: functional; conditions: dose 2.5 µM
# MDA-MB-231 [20] = assay: Induction of apoptosis in human MDA-MB-231 cells assessed as necrotic cells at […] by flow cytometric analysis; type: functional; conditions: dose 2.5 µM
# MDA-MB-231 [21] = assay: Induction of apoptosis in human MDA-MB-231 cells assessed as early apoptotic cells at […] in presence of illumination by flow cytometric analysis; type: functional; conditions: dose 0.25 µM
# MDA-MB-231 [22] = assay: Induction of apoptosis in human MDA-MB-231 cells assessed as necrotic cells at […] in presence of illumination by flow cytometric analysis; type: functional; conditions: dose 0.25 µM
# [23] = Drug localization in lysosomes of human MDA-MB-231 cells at 0.5 uM by DAPI staining based confocal laser scanning microscopic method; type: ADME, subcellular, Lysosome; conditions: mda-mb-231, 0.5 µM
# [24] = Drug localization in mitochondria of human MDA-MB-231 cells at 0.5 uM by DAPI staining based confocal laser scanning microscopic method; type: ADME; conditions: mda-mb-231, 0.5 µM
# [25] = Drug uptake in tumor of BALB/c mouse xenografted with mouse 4T1 cells at 100 uM, iv measured after 120 hrs by fluorescence molecular tomography; type: ADME, organism-based, Neoplasm; conditions: in vivo
# [26] = Binding affinity to 1-20% fetal bovine serum protein in PBS assessed as shift in Q-band by UV/Vis spectrophotometric analysis; type: ADME, cell-free, Bos taurus; conditions: cattle
# [27] = Binding affinity to 1-20% fetal bovine serum protein in PBS assessed as increase in fluorescence emission by fluorescence spectrophotometric analysis; type: ADME, cell-free, Bos taurus; conditions: cattle
# MDA-MB-231 [28] = assay: Cytotoxicity against human MDA-MB-231 cells assessed as reduction in cell viability at 5 uM by calcein-AM/PI staining based fluorescence analysis; type: functional
# [29] = Drug localization in nucleus of human MDA-MB-231 cells at 0.5 uM by DAPI staining based confocal laser scanning microscopic method; type: ADME, subcellular; conditions: mda-mb-231, 0.5 µM
# 4T1 [30] = assay: Antitumor activity against mouse 4T1 cells xenografted in BALB/c mouse assessed as reduction in tumor weight at 2.4 mg/kg, iv dosed every 3 days for 23 days and illuminated with 670 nm laser light 30 mins after the first dose and measured on day 23; type: functional; conditions: 4T1, iv, 552 h, time 23 day
# 4T1 [31] = assay: as §1, with “days and illuminated with 670 nm laser light 30 mins after the first dose and measured on” for “days and measured on”; type: functional; conditions: time 30 day
# [32] = Hepatotoxicity in ICR mouse assessed as hepatocytes with intact nuclei and cytoplasm at 100 uM, iv measured after 24 hrs by H and E staining based light microscopic analysis; type: toxicity, organism-based
# Sequence of Albumin (P02768 whole entry): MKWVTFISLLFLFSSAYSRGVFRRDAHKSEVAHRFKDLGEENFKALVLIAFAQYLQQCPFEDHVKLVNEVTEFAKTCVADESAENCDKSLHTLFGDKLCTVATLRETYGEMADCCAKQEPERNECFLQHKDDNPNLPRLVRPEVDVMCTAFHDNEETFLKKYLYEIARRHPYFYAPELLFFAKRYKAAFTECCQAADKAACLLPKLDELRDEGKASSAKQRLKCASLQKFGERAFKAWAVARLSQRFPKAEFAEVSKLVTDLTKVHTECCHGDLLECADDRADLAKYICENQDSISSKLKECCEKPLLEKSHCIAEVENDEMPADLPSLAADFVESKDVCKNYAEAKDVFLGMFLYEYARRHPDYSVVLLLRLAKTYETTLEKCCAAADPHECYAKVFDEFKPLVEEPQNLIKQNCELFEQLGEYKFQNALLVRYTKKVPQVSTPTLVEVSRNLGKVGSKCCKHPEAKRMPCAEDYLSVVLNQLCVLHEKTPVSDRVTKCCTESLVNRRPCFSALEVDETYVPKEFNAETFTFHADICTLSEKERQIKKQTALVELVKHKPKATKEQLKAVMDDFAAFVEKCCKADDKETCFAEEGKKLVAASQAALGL
SMILES,Activity [1],Activity [2],Activity [3],Activity (4T1 [4]),Activity (4T1 [5]),inhibition in vivo at 2.4 mg/kg (4T1 [6]),Activity [7],Activity (Erythrocyte [9]),Activity (Erythrocyte [10]),Drug uptake [11],Drug uptake [12],Kd (Albumin),IC50 (4T1 [13]),Activity (4T1 [14]),further results
CC(C)C[C@H](NC(=O)[C@H](CC(C)C)NC(=O)[C@@H](CCCCN)NC(=O)[C@H](CC(C)C)NC(=O)[C@H](CC(C)C)NC(=O)[C@H](CCCCN)NC(=O)[C@@H](CCCCN)NC(=O)[C@@H](CC(C)C)NC(=O)[C@H](CC(C)C)NC(=O)[C@@H](CCCCN)NC(=O)[C@H](CCCCN)NC(=O)[C@H](CC(C)C)NC(=O)[C@@H](CC(C)C)NC(=O)[C@H](CCCCN)NC(=O)[C@H](CC(C)C)NC(=O)CNC(=O)CN)C(N)=O,,,,,,,,,,,,,,,IC50 (CWR22R): 6000 nM
CCN(CC)c1ccc2c(-c3ccccc3C(=O)NCC(=O)NCC(=O)N[C@@H](CC(C)C)C(=O)N[C@@H](CCCCN)C(=O)N[C@H](CC(C)C)C(=O)N[C@@H](CC(C)C)C(=O)N[C@@H](CCCCN)C(=O)N[C@H](CCCCN)C(=O)N[C@@H](CC(C)C)C(=O)N[C@H](CC(C)C)C(=O)N[C@H](CCCCN)C(=O)N[C@@H](CCCCN)C(=O)N[C@@H](CC(C)C)C(=O)N[C@@H](CC(C)C)C(=O)N[C@H](CCCCN)C(=O)N[C@@H](CC(C)C)C(=O)N[C@@H](CC(C)C)C(N)=O)c3ccc(=[N+](CC)CC)cc-3oc2c1,Non-Toxic,Non-Toxic,Non-Toxic,14.5%,Active,47.3%,Non-Toxic,Toxic,Non-Toxic,,,,,,Activity [8]: Toxic
C=Cc1c(C)c2cc3nc(c4c5[nH]c(cc6nc(cc1[nH]2)C(C)=C6CC)c(C)c5C(=O)C4)[C@@H](CCC(=O)O)[C@@H]3C [PYROPHEOPHORBIDE A],,,,,,,,,,Active,Active,89.3 nM,130 nM,90%,
C=Cc1c(C)c2cc3nc(c4c5[nH]c(cc6nc(cc1[nH]2)C(C)=C6CC)c(C)c5C(=O)C4)[C@@H](CCC(=O)NCC(=O)NCC(=O)N[C@@H](CC(C)C)C(=O)N[C@@H](CCCCN)C(=O)N[C@H](CC(C)C)C(=O)N[C@@H](CC(C)C)C(=O)N[C@@H](CCCCN)C(=O)N[C@H](CCCCN)C(=O)N[C@@H](CC(C)C)C(=O)N[C@H](CC(C)C)C(=O)N[C@H](CCCCN)C(=O)N[C@@H](CCCCN)C(=O)N[C@@H](CC(C)C)C(=O)N[C@@H](CC(C)C)C(=O)N[C@H](CCCCN)C(=O)N[C@@H](CC(C)C)C(=O)N[C@@H](CC(C)C)C(N)=O)[C@@H]3C,Non-Toxic,Non-Toxic,Non-Toxic,4.7%,Active,90.1%,Non-Toxic,Toxic,Non-Toxic,Active,Not Active,363 nM,380 nM,100%,Drug uptake [15]: Tde; Activity (4T1 [16]): Dose-Dependent Effect; IC50 (4T1 [16]): 1690 nM; Activity (MDA-MB-231 [17]): inactive; Activity (MDA-MB-231 [18]): Active; Activity (MDA-MB-231 [19]): 7.48%; Activity (MDA-MB-231 [20]): 37.52%; Activity (MDA-MB-231 [21]): 10.1%; Activity (MDA-MB-231 [22]): 29%; Drug uptake [23]: Active; Drug uptake [24]: Active; Drug uptake [25]: Active; Activity [26]: Active; Activity [27]: Active; Activity (MDA-MB-231 [28]): Active; Drug uptake [29]: Not Active; inhibition in vivo at 2.4 mg/kg (4T1 [30]): 98.4%; Activity (4T1 [31]): 1.5%; Activity [32]: Non-Toxic
